Assays:
Assay type in all cases: in vivo
[1] = tested on: Diabrotica balteata (corn root worm); assay: Example B4: Diabrotica balteata, sprayed maize sprouts; conditions: 96 h, application rate 200 ppm, L2 larvae, 4 days after infestation, read-out: effect in at least one of the two categories (mortality or growth inhibition)
Description: Maize sprouts, placed on an agar layer in 24-well microtiter plates were treated with aqueous test solutions prepared from 10,000 ppm DMSO stock solutions by spraying. After drying, the plates were infested with L2 larvae (6 to 10 per well). The samples were assessed for mortality and growth inhibition in comparison to untreated samples 4 days after infestation.

[2] = tested on: Spodoptera littoralis (Egyptian cotton leaf worm); assay: Example B1: Spodoptera littoralis, sprayed cotton leaf discs; conditions: foliar, 72 h, application rate 200 ppm, L1 larvae, 3 days after infestation, read-out: control in at least one of the three categories (mortality, anti-feedancy or growth inhibition)
Description: Cotton leaf discs were placed on agar in 24-well microtiter plates and sprayed with aqueous test solutions prepared from 10,000 ppm DMSO stock solutions. After drying the leaf discs were infested with five L1 larvae. The samples were assessed for mortality, anti-feedant effect, and growth inhibition in comparison to untreated samples 3 days after infestation. Control of Spodoptera littoralis by a test sample is when at least one of mortality, anti-feedant effect, and growth inhibition is higher than the untreated sample.

[3] = tested on: Euschistus heros (neotropical brown stink bug); assay: Example B6: Euschistus heros, sprayed soybean leaf; conditions: 120 h, application rate 200 ppm, N-2 nymphs, 5 days after infestation
Description: Soybean leaf on agar in 24-well microtiter plates were sprayed with aqueous test solutions prepared from 10,000 ppm DMSO stock solutions. After drying the leaf were infested with N-2 nymphs.

[4] = tested on: Plutella xylostella (diamond back moth); assay: Example B3: Plutella xylostella, treated artificial diet; conditions: 120 h, application rate 200 ppm, L2 larvae, 5 days after infestation, read-out: effect in at least one of the two categories (mortality or growth inhibition)
Description: 24-well microtiter plates with artificial diet were treated with aqueous test solutions prepared from 10,000 ppm DMSO stock solutions by pipetting. After drying, the plates were infested with L2 larvae (10 to 15 per well). The samples were assessed for mortality and growth inhibition in comparison to untreated samples 5 days after infestation.

[5] = tested on: Spodoptera littoralis (Egyptian cotton leaf worm); assay: Example B2: Spodoptera littoralis, systemic test via lettuce roots in agar; conditions: 144 h, application rate 12.5 ppm, Spodoptera eggs, 6 days after infestation, read-out: control in at least one of the three categories (mortality, anti-feedancy or growth inhibition)
Description: Test compounds were applied by pipette from 10,000 ppm DMSO stock solutions into 24-well plates and mixed with agar. Lettuce seeds were placed on the agar and the multi well plate was closed by another plate which contains also agar. After 7 days the roots have absorbed the compound and the lettuce has grown into the lid plate. The lettuce leafs were now cut off into the lid plate. Spodoptera eggs were pipetted through a plastic stencil on a humid gel blotting paper and the plate closed with it. The samples were assessed for mortality, anti-feedant effect and growth inhibition in comparison to untreated samples 6 days after infestation.
The following compounds gave an effect of at least 80% control in at least one of the three categories (mortality, anti-feedancy or growth inhibition) at an application rate of 12.5 ppm: P2, P3, P8, P9, P11 and P17, P19, P20, P22, P23, P25, P26, P28, P30, P31, P32, P33, P40, P42, P43, P44, P45, P46, P47, P48, P49, P50, P51, P52, P53, P54, P60 and P61.

[6] = tested on: Myzus persicae (green peach aphid); assay: Example B5: Myzus persicae, sprayed sunflower leaf discs; conditions: foliar, 144 h, application rate 200 ppm, aphid population of mixed ages, 6 days after infestation
Description: Sunflower leaf discs were placed on agar in a 24-well microtiter plate and sprayed with aqueous test solutions prepared from 10,000 ppm DMSO stock solutions. After drying, the leaf discs were infested with an aphid population of mixed ages. The samples were assessed for mortality 6 days after infestation.

CCS(=O)(=O)c1cc(-c2ccc(Cl)cc2Cl)cnc1C(=O)/N=c1\sc(C(F)(F)F)nn1C [Compound P34]
≥ 80%: percent effect (mortality or growth inhibition) at 200 ppm [1] | percent control (mortality, anti-feedant effect or growth inhibition) at 200 ppm [2] | mortality at 200 ppm [3] | percent effect (mortality or growth inhibition) at 200 ppm [4]

CCS(=O)(=O)c1cc(-c2ccc(C#N)cc2)cnc1C(=O)/N=c1\sc(C(F)(F)F)nn1C [Compound P28]
≥ 80%: percent effect (mortality or growth inhibition) at 200 ppm [1] | percent control (mortality, anti-feedant effect or growth inhibition) at 200 ppm [2] | percent control (mortality, anti-feedant effect or growth inhibition) at 12.5 ppm [5] | mortality at 200 ppm [3] | percent effect (mortality or growth inhibition) at 200 ppm [4]

CCS(=O)(=O)c1cc(-c2ccc(C#N)cn2)cnc1C(=O)/N=c1\sc(C(F)(F)F)nn1C [Compound P69]
≥ 80%: percent effect (mortality or growth inhibition) at 200 ppm [1] | percent control (mortality, anti-feedant effect or growth inhibition) at 200 ppm [2] | mortality at 200 ppm [3] | percent effect (mortality or growth inhibition) at 200 ppm [4]

CCS(=O)(=O)c1cc(-c2cncc(C(F)(F)F)n2)cnc1C(=O)/N=c1\sc(C(F)(F)F)nn1C [Compound P61]
≥ 80%: percent effect (mortality or growth inhibition) at 200 ppm [1] | percent control (mortality, anti-feedant effect or growth inhibition) at 200 ppm [2] | percent control (mortality, anti-feedant effect or growth inhibition) at 12.5 ppm [5] | mortality at 200 ppm [3] | percent effect (mortality or growth inhibition) at 200 ppm [4]

CCS(=O)(=O)c1cc(-c2ccc(C(F)(F)F)cn2)cnc1C(=O)/N=c1\sc(C(F)(F)F)nn1C [Compound P50]
≥ 80%: percent effect (mortality or growth inhibition) at 200 ppm [1] | percent control (mortality, anti-feedant effect or growth inhibition) at 200 ppm [2] | percent control (mortality, anti-feedant effect or growth inhibition) at 12.5 ppm [5] | mortality at 200 ppm [3] | percent effect (mortality or growth inhibition) at 200 ppm [4]

CCS(=O)(=O)c1cc(-c2ccc(F)cc2)cnc1C(=O)/N=c1\sc(C(F)(F)F)nn1C [Compound P32]
≥ 80%: percent effect (mortality or growth inhibition) at 200 ppm [1] | percent control (mortality, anti-feedant effect or growth inhibition) at 200 ppm [2] | percent control (mortality, anti-feedant effect or growth inhibition) at 12.5 ppm [5] | mortality at 200 ppm [3] | percent effect (mortality or growth inhibition) at 200 ppm [4]

CCS(=O)(=O)c1cc(-n2ccc(C(F)(F)F)n2)cnc1C(=O)/N=c1\sc(C(F)(F)C(F)(F)F)nn1C [Compound P9, (N)-3-ethylsulfonyl-N-[3-methyl-5-(1,1,2,2,2-pentafluoroethyl)-1,3,4-thiadiazol-2-ylidene]-5-[3-(trifluoromethyl)pyrazol-1-yl]pyridine-2-carboxamide]
≥ 80%: percent effect (mortality or growth inhibition) at 200 ppm [1] | percent control (mortality, anti-feedant effect or growth inhibition) at 200 ppm [2] | percent control (mortality, anti-feedant effect or growth inhibition) at 12.5 ppm [5] | percent effect (mortality or growth inhibition) at 200 ppm [4]

CCS(=O)(=O)c1cc(-c2cccc(F)c2)cnc1C(=O)/N=c1\sc(C(F)(F)F)nn1C [Compound P26]
≥ 80%: percent effect (mortality or growth inhibition) at 200 ppm [1] | percent control (mortality, anti-feedant effect or growth inhibition) at 200 ppm [2] | percent control (mortality, anti-feedant effect or growth inhibition) at 12.5 ppm [5] | mortality at 200 ppm [3] | percent effect (mortality or growth inhibition) at 200 ppm [4]

CCS(=O)(=O)c1cc(-c2ccc(Cl)cn2)cnc1C(=O)/N=c1\sc(C(F)(F)F)nn1C [Compound P49]
≥ 80%: percent effect (mortality or growth inhibition) at 200 ppm [1] | percent control (mortality, anti-feedant effect or growth inhibition) at 200 ppm [2] | percent control (mortality, anti-feedant effect or growth inhibition) at 12.5 ppm [5] | mortality at 200 ppm [3] | percent effect (mortality or growth inhibition) at 200 ppm [4]

CCS(=O)(=O)c1cc(-c2cccc(C(F)(F)F)n2)cnc1C(=O)/N=c1\sc(C(F)(F)F)nn1C [Compound P44]
≥ 80%: percent effect (mortality or growth inhibition) at 200 ppm [1] | percent control (mortality, anti-feedant effect or growth inhibition) at 200 ppm [2] | percent control (mortality, anti-feedant effect or growth inhibition) at 12.5 ppm [5] | mortality at 200 ppm [3] | percent effect (mortality or growth inhibition) at 200 ppm [4]

CCS(=O)(=O)c1cc(-c2cccc(C#N)n2)cnc1C(=O)/N=c1\sc(C(F)(F)F)nn1C [Compound P48]
≥ 80%: percent effect (mortality or growth inhibition) at 200 ppm [1] | percent control (mortality, anti-feedant effect or growth inhibition) at 200 ppm [2] | percent control (mortality, anti-feedant effect or growth inhibition) at 12.5 ppm [5] | mortality at 200 ppm [3] | percent effect (mortality or growth inhibition) at 200 ppm [4]

CCS(=O)(=O)c1cc(-c2ncc(C(F)(F)F)cn2)cnc1C(=O)/N=c1\sc(C(F)(F)F)nn1C [Compound P43]
≥ 80%: percent effect (mortality or growth inhibition) at 200 ppm [1] | percent control (mortality, anti-feedant effect or growth inhibition) at 200 ppm [2] | percent control (mortality, anti-feedant effect or growth inhibition) at 12.5 ppm [5] | mortality at 200 ppm [3] | percent effect (mortality or growth inhibition) at 200 ppm [4]

CCS(=O)(=O)c1cc(-c2ccc(C#N)nc2)cnc1C(=O)/N=c1\sc(C(F)(F)F)nn1C [Compound P52]
≥ 80%: percent effect (mortality or growth inhibition) at 200 ppm [1] | percent control (mortality, anti-feedant effect or growth inhibition) at 200 ppm [2] | percent control (mortality, anti-feedant effect or growth inhibition) at 12.5 ppm [5] | mortality at 200 ppm [3] | percent effect (mortality or growth inhibition) at 200 ppm [4]

CCS(=O)(=O)c1cc(-c2cccc(SC)c2)cnc1C(=O)/N=c1\sc(C(F)(F)F)nn1C [Compound P30]
≥ 80%: percent effect (mortality or growth inhibition) at 200 ppm [1] | percent control (mortality, anti-feedant effect or growth inhibition) at 12.5 ppm [5]

CCS(=O)(=O)c1cc(-c2cc(F)ccc2F)cnc1C(=O)/N=c1\sc(C(F)(F)F)nn1C [Compound P33]
≥ 80%: percent effect (mortality or growth inhibition) at 200 ppm [1] | percent control (mortality, anti-feedant effect or growth inhibition) at 200 ppm [2] | percent control (mortality, anti-feedant effect or growth inhibition) at 12.5 ppm [5] | mortality at 200 ppm [3] | percent effect (mortality or growth inhibition) at 200 ppm [4]

CCS(=O)(=O)c1cc(-c2ccc(F)cc2F)cnc1C(=O)/N=c1\sc(C(F)(F)F)nn1C [Compound P25]
≥ 80%: percent effect (mortality or growth inhibition) at 200 ppm [1] | percent control (mortality, anti-feedant effect or growth inhibition) at 200 ppm [2] | percent control (mortality, anti-feedant effect or growth inhibition) at 12.5 ppm [5] | mortality at 200 ppm [3] | percent effect (mortality or growth inhibition) at 200 ppm [4]

CCS(=O)(=O)c1cc(-c2cnc(C(F)(F)F)s2)cnc1C(=O)/N=c1\sc(C(F)(F)F)nn1C [Compound P56]
≥ 80%: percent effect (mortality or growth inhibition) at 200 ppm [1] | percent control (mortality, anti-feedant effect or growth inhibition) at 200 ppm [2] | mortality at 200 ppm [6] | percent effect (mortality or growth inhibition) at 200 ppm [4]

CCS(=O)(=O)c1cc(-c2cccc(C#N)c2)cnc1C(=O)/N=c1\sc(C(F)(F)F)nn1C [Compound P23]
≥ 80%: percent effect (mortality or growth inhibition) at 200 ppm [1] | percent control (mortality, anti-feedant effect or growth inhibition) at 200 ppm [2] | percent control (mortality, anti-feedant effect or growth inhibition) at 12.5 ppm [5] | mortality at 200 ppm [3] | percent effect (mortality or growth inhibition) at 200 ppm [4]

CCS(=O)(=O)c1cc(-c2ncc(C(F)(F)F)cc2F)cnc1C(=O)/N=c1\sc(C(F)(F)F)nn1C [Compound P47]
≥ 80%: percent effect (mortality or growth inhibition) at 200 ppm [1] | percent control (mortality, anti-feedant effect or growth inhibition) at 200 ppm [2] | percent control (mortality, anti-feedant effect or growth inhibition) at 12.5 ppm [5] | mortality at 200 ppm [3] | percent effect (mortality or growth inhibition) at 200 ppm [4]

CCS(=O)(=O)c1cc(-c2ncc(Cl)cn2)cnc1C(=O)/N=c1\sc(C(F)(F)F)nn1C [Compound P65]
≥ 80%: percent effect (mortality or growth inhibition) at 200 ppm [1] | percent control (mortality, anti-feedant effect or growth inhibition) at 200 ppm [2] | mortality at 200 ppm [3] | percent effect (mortality or growth inhibition) at 200 ppm [4]

CCS(=O)(=O)c1cc(-c2cc(Cl)ccn2)cnc1C(=O)/N=c1\sc(C(F)(F)F)nn1C [Compound P41]
≥ 80%: percent effect (mortality or growth inhibition) at 200 ppm [1] | percent control (mortality, anti-feedant effect or growth inhibition) at 200 ppm [2] | mortality at 200 ppm [3] | percent effect (mortality or growth inhibition) at 200 ppm [4]

CCS(=O)(=O)c1cc(-c2ccc(OC(F)(F)F)cc2)cnc1C(=O)/N=c1\sc(C(F)(F)F)nn1C [Compound P22]
≥ 80%: percent effect (mortality or growth inhibition) at 200 ppm [1] | percent control (mortality, anti-feedant effect or growth inhibition) at 200 ppm [2] | percent control (mortality, anti-feedant effect or growth inhibition) at 12.5 ppm [5] | percent effect (mortality or growth inhibition) at 200 ppm [4]
